In patent US10077261B2, “Imidazolin-5-one derivative useful as FASN inhibitors for the treatment of cancer” (Janssen Pharmaceutica NV, priority 2012, dated 2018):

Tests used:
[1] = biological target: T1, hFASN enzyme (full length) (Homo sapiens, UniProt P49327); assay: Fatty Acid Synthase (FASN) inhibition scintillation proximity assay; assay type: biochemical; conditions: for inhibition at 10 µM: read-out: Human FASN % inhibition @ 10 μM, 10 μM test compound; for IC50: read-out: Human FASN pIC50 (converted)
T1 construct: 10 μL hFASN enzyme (full length, 300 ng, purified in house); made in house
T1 sequence (P49327 whole entry): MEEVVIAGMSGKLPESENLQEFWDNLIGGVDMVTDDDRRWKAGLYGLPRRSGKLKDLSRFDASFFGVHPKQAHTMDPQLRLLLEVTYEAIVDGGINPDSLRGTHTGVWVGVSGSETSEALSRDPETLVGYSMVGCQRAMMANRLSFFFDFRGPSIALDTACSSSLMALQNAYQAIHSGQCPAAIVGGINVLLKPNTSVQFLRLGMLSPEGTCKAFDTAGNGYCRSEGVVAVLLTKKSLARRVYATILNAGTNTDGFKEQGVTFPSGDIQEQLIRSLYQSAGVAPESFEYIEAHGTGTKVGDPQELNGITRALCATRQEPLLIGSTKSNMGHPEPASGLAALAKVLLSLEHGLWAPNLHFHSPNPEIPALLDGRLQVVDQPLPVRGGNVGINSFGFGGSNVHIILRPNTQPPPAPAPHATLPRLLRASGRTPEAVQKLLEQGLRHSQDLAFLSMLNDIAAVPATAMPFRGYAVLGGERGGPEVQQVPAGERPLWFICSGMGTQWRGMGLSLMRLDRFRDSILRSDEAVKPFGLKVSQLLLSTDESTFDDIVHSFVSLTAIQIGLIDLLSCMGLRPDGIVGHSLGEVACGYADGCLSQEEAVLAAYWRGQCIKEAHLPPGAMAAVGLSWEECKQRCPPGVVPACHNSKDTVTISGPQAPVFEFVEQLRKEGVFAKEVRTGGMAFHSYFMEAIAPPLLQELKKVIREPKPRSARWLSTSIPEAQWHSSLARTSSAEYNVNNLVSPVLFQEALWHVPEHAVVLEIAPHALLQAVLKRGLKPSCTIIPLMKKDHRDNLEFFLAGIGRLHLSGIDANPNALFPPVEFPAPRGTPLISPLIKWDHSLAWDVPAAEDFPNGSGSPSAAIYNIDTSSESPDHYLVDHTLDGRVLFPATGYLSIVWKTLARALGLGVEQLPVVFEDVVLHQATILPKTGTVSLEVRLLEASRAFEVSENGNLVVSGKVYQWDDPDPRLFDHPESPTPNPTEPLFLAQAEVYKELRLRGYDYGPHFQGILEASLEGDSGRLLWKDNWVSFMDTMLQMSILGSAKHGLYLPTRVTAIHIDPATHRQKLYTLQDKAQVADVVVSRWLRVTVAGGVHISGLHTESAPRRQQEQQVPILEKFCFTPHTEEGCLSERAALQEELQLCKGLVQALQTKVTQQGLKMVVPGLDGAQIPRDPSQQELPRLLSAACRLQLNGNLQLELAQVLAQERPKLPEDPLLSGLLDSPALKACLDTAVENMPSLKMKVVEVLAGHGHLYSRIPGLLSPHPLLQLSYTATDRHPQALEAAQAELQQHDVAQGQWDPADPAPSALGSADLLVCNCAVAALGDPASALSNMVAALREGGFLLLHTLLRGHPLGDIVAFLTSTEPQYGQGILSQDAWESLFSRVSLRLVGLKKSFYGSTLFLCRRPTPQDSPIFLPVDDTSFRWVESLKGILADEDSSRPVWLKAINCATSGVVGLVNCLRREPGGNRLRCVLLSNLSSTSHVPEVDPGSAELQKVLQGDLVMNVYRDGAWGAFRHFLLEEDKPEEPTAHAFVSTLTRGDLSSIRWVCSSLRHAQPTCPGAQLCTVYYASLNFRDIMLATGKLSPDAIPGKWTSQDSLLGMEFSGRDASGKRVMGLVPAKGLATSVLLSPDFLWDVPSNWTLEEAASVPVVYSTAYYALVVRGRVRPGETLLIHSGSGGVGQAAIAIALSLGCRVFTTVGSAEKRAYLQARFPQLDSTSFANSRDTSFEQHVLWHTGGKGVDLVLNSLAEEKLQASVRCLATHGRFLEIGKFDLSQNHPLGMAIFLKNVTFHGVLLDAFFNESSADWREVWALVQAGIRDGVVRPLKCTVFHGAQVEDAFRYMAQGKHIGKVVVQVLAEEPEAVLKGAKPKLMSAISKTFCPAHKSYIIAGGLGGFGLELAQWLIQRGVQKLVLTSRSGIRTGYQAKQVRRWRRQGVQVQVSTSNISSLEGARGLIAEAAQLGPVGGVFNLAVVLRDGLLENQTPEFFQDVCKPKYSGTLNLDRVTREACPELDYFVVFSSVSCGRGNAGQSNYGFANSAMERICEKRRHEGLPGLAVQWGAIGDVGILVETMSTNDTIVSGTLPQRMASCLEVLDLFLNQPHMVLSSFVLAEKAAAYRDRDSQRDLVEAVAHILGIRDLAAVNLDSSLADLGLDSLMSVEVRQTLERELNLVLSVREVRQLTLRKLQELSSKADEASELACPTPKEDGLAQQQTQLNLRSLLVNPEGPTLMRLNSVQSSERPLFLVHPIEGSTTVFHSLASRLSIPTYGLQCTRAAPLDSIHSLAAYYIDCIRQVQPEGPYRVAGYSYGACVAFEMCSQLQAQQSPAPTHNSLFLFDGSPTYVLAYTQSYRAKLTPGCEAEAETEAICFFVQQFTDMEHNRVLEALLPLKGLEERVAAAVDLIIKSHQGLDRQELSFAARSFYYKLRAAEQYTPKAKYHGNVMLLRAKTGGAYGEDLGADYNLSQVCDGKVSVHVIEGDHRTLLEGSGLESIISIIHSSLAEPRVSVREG
Procedure, shortened: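 Proximity read-out: hydrophobic ^3H-palmitate formed from ^3H-acetyl-CoA and malonyl-CoA binds streptavidin imaging beads, imaged at 610±20 nm at least 24 h after stopping. Enzyme was in-house purified full-length hFASN, 300 ng, in pH 7.5 phosphate/DTT buffer; compound series 30 μM down to 0.01 μM, normalized to controls, 4-parameter fit.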

[2] = test system: A2780 ovarian cells; assay: A2780 ovarian cell proliferation assay in lipid reduced medium, with palmitate (MTT); assay type: cell-based; conditions: Homo sapiens, A2780, 96 h; read-out: pIC50 A2780 Ovarian Cell, With Palmitate (converted)
Procedure, shortened: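 In this palmitate-supplemented format, compound dilutions (30 μM down to 0.01 μM) are added to cells in lipid-reduced serum with 25 μM palmitate, 0.2% fatty-acid-free BSA and 0.25% ethanol. After four days (96 h) MTT absorbance at 544 nm is recorded and fitted by minimum sum of squares.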

[3] = biological target: Fatty Acid Synthase Keto-reductase Domain (FASN KR) (Homo sapiens, UniProt P49327); assay: Fatty Acid Synthase keto-reductase domain (FASN KR) inhibition, NADPH oxidation at 340 nm
Chain of Fatty Acid Synthase Keto-reductase Domain (FASN KR) (P49327 whole entry, the tested form may be a part): as the sequence (P49327 whole entry) above
Protocol: After 20 minutes incubation at room temperature the plate was measured again (T2).
The decrease in absorbance was calculated as (Absorbance before incubation T1)−(Absorbance following incubation T2).
A plot of Controlmin versus test compound concentration was fitted to a 4-parameter logistic curve using a non-linear least squares regression method.

[4] = test system: PC-3M-Luc-C6 prostate cells; assay: In vitro PC-3M-Luc-C6 prostate cell proliferation assay in lipid reduced medium; assay type: cell-based; conditions: 96 h, read-out: pIC50 PC-3M-Luc-C6 prostate cell (converted)
[5] = test system: LNCaP-Vancouver prostate cells; assay: In vitro LNCaP Vancouver prostate cell proliferation assay in lipid reduced medium; assay type: cell-based; conditions: read-out: pIC50 LNCaP_Vancouver prostate cell (converted)
[6] = test system: A2780 ovarian cells; assay: A2780 ovarian cell proliferation assay in lipid reduced medium, without palmitate (MTT); assay type: cell-based; conditions: Homo sapiens, A2780, 96 h; read-out: pIC50 A2780 Ovarian Cell, Without Palmitate (converted)

SMILES	inhibition at 10 µM [1]	IC50 [1]	IC50 [2]	IC50 [3]	IC50 [4]	IC50 [5]	IC50 [6]
Cc1cc(-c2ccc(-c3ccn(CC(C)C)n3)cc2)ccc1C1=NC2(CC2)C(=O)N1CC1CN(C(=O)C2(C)CC2)C1 [compound 602, 6-({1-[(1-Methylcyclopropyl)carbonyl]azetidin-3-yl}methyl)-5-{3-methyl-4′-[1-(2-methylpropyl)-1H-pyrazol-3-yl]biphenyl-4-yl}-4,6-diazaspiro[2.4]hept-4-en-7-one]	94%	324 nM	6170 nM	1550 nM	692 nM	1480 nM	380 nM
Cc1cc(-c2ccc3ccc(C#N)nc3c2)ccc1C1=NC2(CC2)C(=O)N1CC1CN(C(=O)C2(C)CC2)C1 [compound 604, 7-{3-Methyl-4-[6-({1-[(1-methylcyclopropyl)carbonyl]azetidin-3-yl}methyl)-7-oxo-4,6-diazaspiro[2.4]hept-4-en-5-yl]phenyl}quinoine-2-carbonitrile]	84%	1120 nM	~10000 nM	8710 nM	4170 nM	> 10000 nM	2340 nM
Cn1nc(Cl)c2ccc(-c3ccc(C4=NC5(CC5)C(=O)N4CC4CN(C(=O)C5CC5)C4)c(F)c3)cc21 [compound 606, 5-[4-(3-Chloro-1-methyl-1H-indazol-6-yl)-2-fluorophenyl]-6-{[1-(cyclopropylcarbonyl)azetidin-3-yl]methyl}-4,6-diazaspiro[2.4]hept-4-en-7-one]	97%	209 nM	> 10000 nM	1450 nM	1120 nM	2400 nM	1230 nM
Cn1nc(Cl)c2cc(-c3ccc(C4=NC5(CC5)C(=O)N4CC4CN(C(=O)C5CC5)C4)c(F)c3)ccc21 [compound 607, 5-[4-(3-Chloro-1-methyl-1H-indazol-5-yl)-2-fluorophenyl]-6-{[1-(cyclopropylcarbonyl)azetidin-3-yl]methyl}-4,6-diazaspiro[2.4]hept-4-en-7-one]	102%	158 nM	> 10000 nM	537 nM	178 nM	1100 nM	646 nM
Cn1nc(CO)c2cc(-c3ccc(C4=NC5(CC5)C(=O)N4CC4CN(C(=O)C5CC5)C4)c(F)c3)ccc21 [compound 609, 6-{[1-(Cyclopropylcarbonyl)azetidin-3-yl]methyl}-5-{2-fluoro-4-[3-(hydroxymethyl)-1-methyl-1H-indazol-5-yl]phenyl}-4,6-diazaspiro[2.4]hept-4-en-7-one]	99%	186 nM	> 10000 nM	676 nM	661 nM	4790 nM	~263 nM
Cc1cc(-c2cccc(NS(=O)(=O)C3CC3)c2)ccc1C1=NC2(CC2)C(=O)N1C[C@@H]1CCN(C(=O)C2CC2)C1 [compound 613, N-[4′-(6-{[(3R)-1-(Cyclopropylcarbonyl)pyrrolidin-3-yl]methyl}-7-oxo-4,6-diazaspiro[2.4]hept-4-en-5-yl)-3′-methylbiphenyl-3-yl]cyclopropanesulfonamide]	102%	115 nM	> 10000 nM	229 nM	97.7 nM	851 nM	107 nM
O=C(Nc1cccc(-c2ccc(C3=NC4(CC4)C(=O)N3CC3CN(C(=O)C4CC4)C3)c(F)c2)c1)C1CC1 [compound 615, N-[4′-(6-{[1-(Cyclopropylcarbonyl)azetidin-3-yl]methyl}-7-oxo-4,6-diazaspiro[2.4]hept-4-en-5-yl)-3′-fluorobiphenyl-3-yl]cyclopropanecarboxamide]	98%	324 nM	> 10000 nM	1050 nM	~2340 nM	3240 nM	501 nM
N#Cc1ccc2ccc(-c3ccc(C4=NC5(CC5)C(=O)N4CC4CN(C(=O)C5CC5)C4)c(F)c3)cc2c1 [compound 616, 7-[4-(6-{[1-(Cyclopropylcarbonyl)azetidin-3-yl]methyl}-7-oxo-4,6-diazaspiro[2.4]hept-4-en-5-yl)-3-fluorophenyl]naphthalene-2-carbonitrile]	94%	513 nM	> 10000 nM	1550 nM	> 10000 nM	3160 nM	1820 nM
COc1ccc2ccc(-c3ccc(C4=NC5(CC5)C(=O)N4CC4CN(C(=O)C5(O)CC5)C4)c(F)c3)cc2c1 [compound 617, 5-[2-Fluoro-4-(7-methoxynaphthalen-2-yl)phenyl]-6-({1-[(1-hydroxycyclopropyl)carbonyl]azetidin-3-yl}methyl)-4,6-diazaspiro[2.4]hept-4-en-7-one]	100%	166 nM	> 10000 nM	631 nM	646 nM	2570 nM	245 nM

Results, then the compound that gave them:

inhibition at 10 µM [1]	IC50 [1]	IC50 [2]	IC50 [3]	IC50 [4]	IC50 [5]	IC50 [6]	SMILES
98%	229 nM	> 10000 nM	1120 nM	~2570 nM	3470 nM	794 nM	COc1ccc2ccc(-c3ccc(C4=NC5(CC5)C(=O)N4CC4CN(C(=O)C5CC5)C4)c(F)c3)cc2c1 [compound 618, 6-{[1-(Cyclopropylcarbonyl)azetidin-3-yl]methyl}-5-[2-fluoro-4-(7-methoxynaphthalen-2-yl)phenyl]-4,6-diazaspiro[2.4]hept-4-en-7-one]
101%	186 nM	> 10000 nM	380 nM	631 nM	3240 nM	~224 nM	O=C(C1CC1)N1CC(CN2C(=O)C3(CC3)N=C2c2ccc(-c3cccc(NS(=O)(=O)C4CC4)c3)cc2F)C1 [compound 619, N-[4′-(6-{[1-(Cyclopropylcarbonyl)azetidin-3-yl]methyl}-7-oxo-4,6-diazaspiro[2.4]hept-4-en-5-yl)-3′-fluorobiphenyl-3-yl]cyclopropanesulfonamide]
92%	617 nM	6170 nM	513 nM	437 nM	2140 nM	708 nM	N#Cc1ccc2ccc(-c3ccc(C4=NC5(CC5)C(=O)N4CC4CN(C(=O)C5(O)CC5)C4)c(F)c3)cc2c1 [compound 621, 7-{3-Fluoro-4-[6-({1-[(1-hydroxycyclopropyl)carbonyl]azetidin-3-yl}methyl)-7-oxo-4,6-diazaspiro[2.4]hept-4-en-5-yl]phenyl}naphthalene-2-carbonitrile]
101%	145 nM	5130 nM	234 nM	123 nM	562 nM	~32.4 nM	Cc1cc(-c2ccc(-c3ccnn3C)cc2)ccc1C1=NC2(CC2)C(=O)N1C[C@@H]1CCN(C(=O)C2(C)CC2)C1 [compound 623, 6-({(3R)-1-[(1-Methylcyclopropyl)carbonyl]pyrrolidin-3-yl}methyl)-5-[3-methyl-4′-(1-methyl-1H-pyrazol-5-yl)biphenyl-4-yl]-4,6-diazaspiro[2.4]hept-4-en-7-one]
105%	107 nM	> 10000 nM	126 nM	47.9 nM	~129 nM	12 nM	Cc1cc(-c2ccc3c(c2)ncn3C)ccc1C1=NC2(CC2)C(=O)N1CC1CN(C(=O)C2(C)CC2)C1 [compound 627, 6-({1-[(1-Methylcyclopropyl)carbonyl]azetidin-3-yl}methyl)-5-[2-methyl-4-(1-methyl-1H-benzimidazol-5-yl)phenyl]-4,6-diazaspiro[2.4]hept-4-en-7-one]
97%	219 nM	> 10000 nM	1350 nM	355 nM	1020 nM	129 nM	COc1cccc2cc(-c3ccc(C4=NC5(CC5)C(=O)N4CC4CN(C(=O)C5CC5)C4)c(F)c3)ccc12 [compound 635, 6-{[1-(Cyclopropylcarbonyl)azetidin-3-yl]methyl}-5-[2-fluoro-4-(5-methoxynaphthalen-2-yl)phenyl]-4,6-diazaspiro[2.4]hept-4-en-7-one]
99%	120 nM	> 10000 nM	871 nM	~234 nM	1820 nM	85.1 nM	Cn1ncc2cc(-c3ccc(C4=NC5(CC5)C(=O)N4CC4CN(C(=O)C5(F)CC5)C4)c(F)c3)ccc21 [compound 637, 6-({1-[(1-Fluorocyclopropyl)carbonyl]azetidin-3-yl}methyl)-5-[2-fluoro-4-(1-methyl-1H-indazol-5-yl)phenyl]-4,6-diazaspiro[2.4]hept-4-en-7-one]
100%	191 nM	> 10000 nM	1000 nM	479 nM	1700 nM	~195 nM	O=C(C1CC1)N1CC(CN2C(=O)C3(CC3)N=C2c2ccc(-c3nc4cc(F)ccc4s3)cc2F)C1 [compound 638, 6-{[1-(Cyclopropylcarbonyl)azetidin-3-yl]methyl}-5-[2-fluoro-4-(5-fluoro-1,3-benzothiazol-2-yl)phenyl]-4,6-diazaspiro[2.4]hept-4-en-7-one]
